# According to US9695132B2, “Heteroaryl compounds and uses thereof” (Celgene CAR LLC, priority 2013, dated 2017):
# Like-named read-outs stand apart in the source and are kept apart here.
# Key:
# [1] = molecular target: FGFR4 in MDA-MB-453 cells (Homo sapiens, UniProt P22455); assay: Target occupancy assay with biotinylated covalent probe I-127; assay type: cell-based
# Protocol: In order to assess free FGFR4 protein a biotinylated covalent probe was utilized. […] The reaction was incubated for 2 hr at room temperature. The samples and probe mixture were transferred to a FGFR4-coated MSD plate for 2 hr at room temperature. MSD signals were obtained with an anti-streptavidin Sulfo-tag (Meso Scale) antibody for 1 hr at room temperature. […] If a compound completely (100%) covalently modies FGFR4 no free FGFR4 should be available for covalent modification by the biotinylated probe and subsequent binding to streptavidin and detection.
# [2] = molecular target: FGFR4-WT (Homo sapiens (Human), UniProt P22455); assay: Omnia assay for potency assessment against FGFR4 enzyme; assay type: biochemical
# Protocol: A 10× stock solution of FGFR4-WT (PR4380C), (from Invitrogen, Carlsbad, Calif.) corresponding to method a in Table 7, was prepared as described below. Alternatively, a 10× stock solution of FGFR4-WT (F01-11G), (SignalChem, Richmond, BC) corresponding to method b in Table 7, was prepared as described below. A solution of 1.4×ATP (AS001A) and 5× Tyr-Sox conjugated peptide substrate (KNZ3101) were prepared in 1× kinase reaction buffer consisting of 20 mM Tris, pH 7.5, 5 mM MgCl2, 1 mM EGTA, 5 mM β-glycerophosphate, 5% glycerol (10× stock, KB002A) and 0.2 mM DTT (DS001A). […] The serially diluted compounds were prepared on a Tecan EVO100. A second addition of 10 μl of Tyr-Sox FGFR4 substrate was added to each well and the kinase reactions were started with the addition of 35 μL of 1.4×ATP. The reactions were monitored every 71 seconds for 240 minutes at λex360/λem485 in a Synergy plate reader from BioTek (Winooski, Vt.).
# [3] = molecular target: pFGFR4 in Huh7 cells (Homo sapiens (Human), UniProt P22455); assay: FGFR4 signaling, Meso Scale assay (MSD), Method B, Huh7
# Protocol: Huh7 cells were grown in DMEM (Invitrogen, Carlsbad, Calif.) supplemented with 10% FBS (Invitrogen) and 1% Penicillin-Streptomycin (P/S, Lonza, Walkersville, Md.).
# For the MSD and ELISA assays, total FGFR4 antibodies were obtained from R&D Systems (Minneapolis, Minn.) and used at 1:500. […] Phospho-FGFR antibodies were obtained from Cell Signaling (Danvers, Mass.) or R&D Systems and used at 1:1000. The phopho-FGFR antibody from Cell Signaling was used for immunoblotting, whereas the phopho-FGFR antibody from R&D was used for MSD and ELISA assays. Secondary antibodies were used at 1:10,000. The goat anti-mouse IgG IRDye 800CW antibody was obtained from LiCor Biosciences (Lincoln, Nebr.) and the goat anti-rabbit IgG Alexa Fluor 680 was obtained from Invitrogen. The anti-rabbit Sulfo-tag and anti-streptavidin Sulfo-tag antibodies was obtained from Meso Scale Discovery (Gaithersburg, Md.), and were used at 1:1000 and 1:5000, respectively.
# After treatment, the cells were washed with cold PBS (Invitrogen), and were immediately lysed by freeze/thawing 3× in 32 μL of cold Cell Extraction Buffer (Invitrogen), which was supplemented with Complete Protease inhibitors (Roche) and PhosphoSTOP (Roche) phosphatase inhibitors.
# MSD plates (Meso Scale Discovery) were coated with total FGFR-4 antibodies overnight at 4° C. A lysate (25 μL) was added to the MSD plate overnight at 4° C. The MSD signals were obtained by incubating with a phospho-FGFR antibody (R&D Systems) and an anti-rabbit sulfo-tag antibody (Meso Scale), for 2 hr at room temperature. […] The data was fitted using a sigmoidal curve analysis program (Graph Pad Prism version 5) with variable Hill slope to determine the EC50 values.
# [4] = method b: [FGFR4-WT]=2.5 nM (SignalChem), [ATP]=250 uM, [Y10-Sox]=10 uM
# [5] = method a: [FGFR4-WT]=10 nM (Invitrogen), [ATP]=300 uM, [Y10-Sox]=10 uM
# Chain of FGFR4-WT (P22455 22-802): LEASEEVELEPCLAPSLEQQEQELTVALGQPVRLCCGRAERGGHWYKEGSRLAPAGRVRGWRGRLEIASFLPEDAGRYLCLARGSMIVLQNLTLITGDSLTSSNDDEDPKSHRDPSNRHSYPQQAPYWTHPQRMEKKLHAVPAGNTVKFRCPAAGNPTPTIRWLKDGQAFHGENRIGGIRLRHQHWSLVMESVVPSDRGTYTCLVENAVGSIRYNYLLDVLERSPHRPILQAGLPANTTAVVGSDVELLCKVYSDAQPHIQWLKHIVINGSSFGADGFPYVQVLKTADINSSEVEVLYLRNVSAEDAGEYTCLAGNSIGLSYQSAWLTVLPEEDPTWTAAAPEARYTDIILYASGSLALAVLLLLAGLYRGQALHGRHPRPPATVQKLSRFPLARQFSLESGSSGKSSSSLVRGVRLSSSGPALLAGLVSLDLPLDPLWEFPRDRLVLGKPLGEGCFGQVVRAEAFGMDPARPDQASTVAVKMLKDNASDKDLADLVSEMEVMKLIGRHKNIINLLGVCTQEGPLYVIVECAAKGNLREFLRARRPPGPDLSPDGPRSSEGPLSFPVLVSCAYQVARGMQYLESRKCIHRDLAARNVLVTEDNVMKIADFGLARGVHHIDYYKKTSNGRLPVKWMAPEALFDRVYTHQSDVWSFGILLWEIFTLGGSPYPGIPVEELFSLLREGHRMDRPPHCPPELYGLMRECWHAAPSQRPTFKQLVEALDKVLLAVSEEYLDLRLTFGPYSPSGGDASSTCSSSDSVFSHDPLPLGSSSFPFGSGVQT
# Chain of FGFR4 in MDA-MB-453 cells (P22455 22-802 limits assumed): as the sequence (P22455 22-802) above
# Chain of pFGFR4 in Huh7 cells (P22455 22-802): as above
Structure (SMILES),EC50 [1] [nM],"IC50 [2, 4] [nM]",EC50 [3] [nM],"IC50 [2, 5] [nM]",IC50 [2] [nM]
C=CC(=O)NC1CCCCC1Nc1ncc2c(n1)N(Cc1ccccc1)C(=O)N(c1c(Cl)c(OC)cc(OC)c1Cl)C2 (racemic) [Compound I-63],101 to 500,,,,
C=CC(=O)NC1CCCCC1Nc1ncc2c(n1)N(Cc1cccnc1)C(=O)N(c1c(Cl)c(OC)cc(OC)c1Cl)C2 (racemic) [Compound I-35],101 to 500,,,,
C=CC(=O)Nc1ccccc1Nc1ncc2c(n1)N(Cc1ccc(F)cc1)C(=O)N(c1c(Cl)c(OC)cc(OC)c1Cl)C2 [Compound I-25],,101 to 500,101 to 500,,
C=CC(=O)Nc1cc(N(C)CCOC)ccc1Nc1ncc2c(n1)N(Cc1ccccc1)C(=O)N(c1cc(OC)cc(OC)c1)C2 [Compound I-13],,101 to 500,101 to 500,,
C=CC(=O)Nc1ccccc1Nc1ncc2c(n1)N(Cc1cccnc1)C(=O)N(c1cc(OC)cc(OC)c1)C2 [Compound I-44],,,< 100,< 100,
C=CC(=O)Nc1cc(C(F)(F)F)ccc1Nc1ncc2c(n1)N(Cc1ccccc1)C(=O)N(c1c(Cl)c(OC)cc(OC)c1Cl)C2 [Compound I-6],,501 to 999,101 to 500,,
C=CC(=O)NC1COCC1Nc1ncc2c(n1)N(C)C(=O)N(c1cc(C(=O)Nc3cccc(C(C)(C)C#N)c3)ccc1Cl)C2 (centres unmarked) [Compound I-246],,,101 to 500,101 to 500,
C=CC(=O)Nc1cc(-c2nnnn2C)ccc1Nc1ncc2c(n1)N(C)C(=O)N(c1c(Cl)c(OC)cc(OC)c1Cl)C2 [Compound I-153],,,< 100,< 100,
C=CC(=O)NC1CCCCC1Nc1ncc2c(n1)N(CC(F)F)C(=O)N(c1c(F)c(OC)cc(OC)c1F)C2 (centres unmarked) [Compound I-115],,,101 to 500,101 to 500,
C=CC(=O)Nc1ccccc1Nc1ncc2c(n1)N(C1CCCN(C(=O)OC(C)(C)C)C1)C(=O)N(c1cc(OC)cc(OC)c1)C2 (centres unmarked) [Compound I-36],,,101 to 500,< 100,
C=CC(=O)NC1COCC1Nc1ncc2c(n1)N(C)C(=O)N(c1c(F)c(OC)cc(OC)c1F)C2 (centres unmarked) [Compound I-198],,,< 100,< 100,
CCC(=O)Nc1ccccc1Nc1ncc2c(n1)N(Cc1ccccc1)C(=O)N(c1c(Cl)c(OC)cc(OC)c1Cl)C2 [Compound I-236],> 1000,101 to 500,,,
C=CC(=O)Nc1ccccc1Nc1ncc2c(n1)N(Cc1cccc(N)c1)C(=O)N(c1c(Cl)c(OC)cc(OC)c1Cl)C2 [Compound I-26],,< 100,< 100,,
C=CC(=O)Nc1ccccc1Nc1ncc2c(n1)N(Cc1ccccc1)C(=O)N(c1c(Cl)c(OC)cc(OC)c1Cl)C2 [Compound I-3],< 100,< 100,,,
C=CC(=O)Nc1ccccc1Nc1ncc2c(n1)N(CC#N)C(=O)N(c1cc(OC)cc(OC)c1)C2 [Compound I-48],,,101 to 500,< 100,
C=CC(=O)NC1CCCCC1Nc1ncc2c(n1)N(Cc1csc(C)n1)C(=O)N(c1c(Cl)c(OC)cc(OC)c1Cl)C2 (centres unmarked) [Compound I-137],,,101 to 500,< 100,
C=CC(=O)Nc1ccccc1Nc1ncc2c(n1)N(CC1CC1)C(=O)N(c1cc(OC)cc(OC)c1)C2 [Compound I-98],,,< 100,< 100,
C=CC(=O)Nc1ccccc1Nc1ncc2c(n1)N(CC(F)F)C(=O)N(c1cc(OC)cc(OC)c1Cl)C2 [Compound I-104],,,< 100,< 100,
C=CC(=O)N[C@H]1CCCC[C@H]1Nc1ncc2c(n1)N(C)C(=O)N(c1c(F)c(OC)cc(OC)c1F)C2 [Compound I-143],,,101 to 500,< 100,
C=CC(=O)N(C)C1COCC1Nc1ncc2c(n1)N(C)C(=O)N(c1c(Cl)c(OC)cc(OC)c1Cl)C2 (centres unmarked) [Compound I-218],,,> 1000,> 1000,
C=CC(=O)N[C@H]1COCC[C@H]1Nc1ncc2c(n1)N(C)C(=O)N(c1c(Cl)c(OC)cc(OC)c1Cl)C2 [Compound I-140],,,101 to 500,101 to 500,
C=CC(=O)Nc1ccccc1Nc1ncc2c(n1)N(Cc1cn[nH]c1)C(=O)N(c1c(Cl)c(OC)cc(OC)c1Cl)C2 [Compound I-124],,,< 100,< 100,
C=CC(=O)N[C@H]1CCCC[C@H]1Nc1ncc2cc(-c3c(Cl)c(OC)cc(OC)c3Cl)c(=O)n(C)c2n1 [Compound I-223],,,< 100,,< 100
C=CC(=O)NC1COCC1Nc1ncc2c(n1)N(Cc1cnn(C)c1)C(=O)N(c1c(Cl)c(OC)cc(OC)c1Cl)C2 (centres unmarked) [Compound I-213],,,< 100,< 100,

Structure (SMILES),EC50 [1] [nM],"IC50 [2, 4] [nM]",EC50 [3] [nM],"IC50 [2, 5] [nM]",IC50 [2] [nM]
C=CC(=O)NC1COCC1Nc1ncc2c(n1)N(C)C(=O)N(c1cc(OC)c(OC)c(OC)c1)C2 (centres unmarked) [Compound I-207],,,> 1000,> 1000,
C=CC(=O)NC1COCC1Nc1ncc2c(n1)N(C)C(=O)N(c1c(Cl)c(OC)cc(OC)c1Cl)C2 (centres unmarked) [Compound I-126],,,< 100,< 100,
C=CC(=O)NC1COCC1Nc1ncc2c(n1)N(C)C(=O)N(c1c(F)c(OC)cc(OC)c1Cl)C2 (centres unmarked) [Compound I-206],,,< 100,< 100,
C=CC(=O)NC1CS(=O)(=O)CC1Nc1ncc2c(n1)N(C)C(=O)N(c1c(Cl)c(OC)cc(OC)c1Cl)C2 (centres unmarked) [Compound I-200],,,101 to 500,< 100,
C=CC(=O)Nc1cc(C)ccc1Nc1ncc2c(n1)N(C)C(=O)N(c1cc(OC)cc(OC)c1)C2 [Compound I-41],,,101 to 500,< 100,
C=CC(=O)Nc1ccccc1Nc1ncc2c(n1)N(CCF)C(=O)N(c1cc(OC)cc(OC)c1Cl)C2 [Compound I-110],,,< 100,< 100,
C=CC(=O)NC1COCC1Nc1ncc2c(n1)N(Cc1ccn(C)n1)C(=O)N(c1c(Cl)c(OC)cc(OC)c1Cl)C2 (centres unmarked) [Compound I-215],,,< 100,< 100,
C=CC(=O)Nc1ccccc1Nc1ncc2c(n1)N(CCOC)C(=O)N(c1cc(OC)cc(OC)c1)C2 [Compound I-59],,,101 to 500,< 100,
C=CC(=O)Nc1ccc(C(F)(F)F)cc1Nc1ncc2c(n1)N(C)C(=O)N(c1cc(OC)cc(OC)c1)C2 [Compound I-50],,,101 to 500,< 100,
C=CC(=O)Nc1ccccc1Nc1ncc2c(n1)N(C1COC1)C(=O)N(c1cc(OC)cc(OC)c1)C2 [Compound I-88],,,101 to 500,< 100,
C=CC(=O)N[C@H]1CCCC[C@H]1Nc1ncc2c(n1)N(C)C(=O)N(c1cc(OC)c(OC)c(OC)c1)C2 [Compound I-220],,,> 1000,> 1000,
C=CC(=O)NC1COCC1Nc1ncc2c(n1)N(CC)C(=O)N(c1c(Cl)c(OC)cc(OC)c1Cl)C2 (centres unmarked) [Compound I-217],,,< 100,< 100,
C=CC(=O)Nc1ccccc1Nc1ncc2c(n1)NC(=O)N(c1cc(OC)cc(OC)c1)C2 [Compound I-125],,,> 1000,101 to 500,
C=CC(=O)Nc1nn(C)cc1Nc1ncc2c(n1)N(C)C(=O)N(c1c(Cl)c(OC)cc(OC)c1Cl)C2 [Compound I-117],,,< 100,< 100,
C=CC(=O)NC1CN(c2ccn(C)n2)CC1Nc1ncc2c(n1)N(C)C(=O)N(c1c(Cl)c(OC)cc(OC)c1Cl)C2 (centres unmarked) [Compound I-204],,,< 100,< 100,
C=CC(=O)NC1COCC1Nc1ncc2c(n1)N(C)C(=O)N(c1ccc(OC)cc1)C2 (centres unmarked) [Compound I-209],,,> 1000,> 1000,
C=CC(=O)Nc1cc(N(C)CCOC)ccc1Nc1ncc2c(n1)N(C)C(=O)N(c1cc(OC)cc(OC)c1)C2 [Compound I-21],,,< 100,< 100,
C=CC(=O)NC1COCC1Nc1ncc2c(n1)N(C)C(=O)N(c1c(Cl)c(OC)c(OC)c(OC)c1Cl)C2 (centres unmarked) [Compound I-208],,,> 1000,501 to 999,
C=CC(=O)Nc1ccccc1Nc1ncc2c(n1)N(Cc1cccc(F)c1)C(=O)N(c1c(Cl)c(OC)cc(OC)c1Cl)C2 [Compound I-12],101 to 500,101 to 500,,,
C=CC(=O)NC1CN(C2CCN(C)CC2)CC1Nc1ncc2c(n1)N(C)C(=O)N(c1c(Cl)c(OC)cc(OC)c1Cl)C2 (racemic) [Compound I-154],,,> 1000,101 to 500,
C=CC(=O)Nc1ccccc1Nc1ncc2c(n1)N(Cc1cn[nH]c1)C(=O)N(c1cc(OC)cc(OC)c1)C2 [Compound I-121],,,< 100,< 100,
C=CC(=O)Nc1ccccc1Nc1ncc2cc(-c3c(Cl)c(OC)cc(OC)c3Cl)c(=O)n(C)c2n1 [Compound I-244],,,< 100,< 100,
C=CC(=O)Nc1ccccc1Nc1ncc2c(n1)N(CC1CC1)C(=O)N(c1cc(OC)cc(OC)c1Cl)C2 [Compound I-100],,,< 100,< 100,
